Consider four compounds from ChEMBL document CHEMBL1153172, “Oxo-bridged isomers of aza-trishomocubane sigma (sigma) receptor ligands: Synthesis, in vitro binding, and molecular modeling” (Bioorg Med Chem Lett, 2010).

Where only a bound is given, the exact number is not on record here.

In general, Ki refers to a measure of affinity in units of concentration, obtained from inhibition or displacement. Lower therefore signals a stronger hold on the target. A word on the inhibition: it is the share of the control response that was lost under treatment. Read a high inhibition as strong suppression.

Experiment [1] deals with Sigma non-opioid intracellular receptor 1 (Homo sapiens, UniProt Q99720). Briefly: Binding affinity to sigma 1 receptor.
Experiment [2] in a line: Inhibition of 5HT receptor at 10 uM.
Experiment [3] deals with T1, Alpha-2C adrenergic receptor (Homo sapiens, UniProt P18825).
T1 sequence (P18825 whole entry): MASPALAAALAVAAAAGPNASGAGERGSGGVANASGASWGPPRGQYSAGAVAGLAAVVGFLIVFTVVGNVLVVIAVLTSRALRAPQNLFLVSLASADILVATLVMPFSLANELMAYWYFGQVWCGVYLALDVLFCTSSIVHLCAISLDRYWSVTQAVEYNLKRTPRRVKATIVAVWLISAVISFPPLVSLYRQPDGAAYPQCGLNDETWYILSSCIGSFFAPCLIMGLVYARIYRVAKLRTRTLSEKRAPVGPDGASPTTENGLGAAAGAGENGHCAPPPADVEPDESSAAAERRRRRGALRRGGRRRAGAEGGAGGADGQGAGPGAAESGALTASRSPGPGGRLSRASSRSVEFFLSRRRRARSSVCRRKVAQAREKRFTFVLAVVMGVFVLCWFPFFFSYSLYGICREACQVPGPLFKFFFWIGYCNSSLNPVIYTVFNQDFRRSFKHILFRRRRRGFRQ
Put plainly: (§1) Binding affinity to Alpha2C adrenoceptor receptor.

Experiment [4] in a line: Binding affinity to sigma 2 receptor.
Experiment [5] concerns the target T2, Sodium-dependent dopamine transporter (Homo sapiens, UniProt Q01959). Put plainly: Inhibition of DAT at 10 uM.
In experiment [6] the target is T2, Sodium-dependent dopamine transporter. Put plainly: Binding affinity to DAT.
Experiment [7] in a line: Selectivity, ratio of Ki for sigma 1 to Ki for sigma 2.
The target of experiment [8] is T3, Alpha-2C adrenergic receptor (Homo sapiens) (UniProt P18825).
T3 sequence (whole entry): T1 sequence (P18825 whole entry)
Briefly: Inhibition of Alpha2C adrenoceptor receptor at 10 uM.

Experiment [9] addresses 5-hydroxytryptamine receptor 1B (Homo sapiens) (UniProt P28222). Put plainly: Inhibition of 5HT1B receptor at 10 uM.
Experiment [10] has as its target Histamine H2 receptor (Homo sapiens) (UniProt P25021). Briefly: Inhibition of histamine H2 receptor at 10 uM.
The target in experiment [11] is 5-hydroxytryptamine receptor 7 (Homo sapiens) (UniProt P34969). Put plainly: Inhibition of 5HT7 receptor at 10 uM.
The target of experiment [12] is 5-hydroxytryptamine receptor 2A (Homo sapiens) (UniProt P28223). Put plainly: Inhibition of 5HT2A receptor at 10 uM.
Experiment [13] addresses 5-hydroxytryptamine receptor 1D (Homo sapiens) (UniProt P28221). Put plainly: Inhibition of 5HT1D receptor at 10 uM.
The target of experiment [14] is Alpha-1A adrenergic receptor (Homo sapiens) (UniProt P35348). Briefly: Inhibition of Alpha1A adrenoceptor receptor at 10 uM.
Experiment [15] deals with Histamine H3 receptor (Homo sapiens) (UniProt Q9Y5N1). Put plainly: Inhibition of histamine H3 receptor at 10 uM.
The target of experiment [16] is Delta-type opioid receptor (Homo sapiens) (UniProt P41143). Put plainly: Inhibition of Delta opioid receptor at 10 uM.
For experiment [17], the target named is 5-hydroxytryptamine receptor 1E (Homo sapiens) (UniProt P28566). Put plainly: Inhibition of 5HT1E receptor at 10 uM.
The target in experiment [18] is 5-hydroxytryptamine receptor 5A (Homo sapiens) (UniProt P47898). Briefly: Inhibition of 5HT5A receptor at 10 uM.
For experiment [19], the target named is T1, Alpha-2C adrenergic receptor. The description is as §1. This is another data set of the same source.
Experiment [20] addresses Alpha-2B adrenergic receptor (Homo sapiens) (UniProt P18089). Briefly: Inhibition of Alpha2B adrenoceptor receptor at 10 uM.
Experiment [21] has as its target Mu-type opioid receptor (Homo sapiens) (UniProt P35372). Put plainly: Inhibition of mu opioid receptor at 10 uM.
The target in experiment [22] is Alpha-2A adrenergic receptor (Homo sapiens) (UniProt P08913). Briefly: Inhibition of Alpha2A adrenoceptor receptor at 10 uM.
Experiment [23] addresses 5-hydroxytryptamine receptor 1A (Homo sapiens, UniProt P08908). Put plainly: Binding affinity to 5HT1A receptor.
Experiment [24] concerns the target 5-hydroxytryptamine receptor 2C (Homo sapiens) (UniProt P28335). Put plainly: Inhibition of 5HT2C receptor at 10 uM.
Experiment [25] has as its target Alpha-1B adrenergic receptor (Homo sapiens) (UniProt P35368). Put plainly: Inhibition of Alpha1B adrenoceptor receptor at 10 uM.
Experiment [26] addresses 5-hydroxytryptamine receptor 3A (Homo sapiens) (UniProt P46098). Briefly: Inhibition of 5HT3 receptor at 10 uM.
Experiment [27] has as its target D(2) dopamine receptor (Homo sapiens) (UniProt P14416). Briefly: Inhibition of D2 receptor at 10 uM.
Experiment [28] in a line: Inhibition of Ca2+ channel at 10 uM.
In experiment [29] the target is D(1A) dopamine receptor (Homo sapiens) (UniProt P21728). Put plainly: Inhibition of D1 receptor at 10 uM.
Experiment [30] addresses Cannabinoid receptor 1 (Homo sapiens) (UniProt P21554). Put plainly: Inhibition of CB1 receptor at 10 uM.
Experiment [31] deals with 5-hydroxytryptamine receptor 4 (Homo sapiens) (UniProt Q13639). Put plainly: Inhibition of 5HT4 receptor at 10 uM.
The target of experiment [32] is 5-hydroxytryptamine receptor 2B (Homo sapiens) (UniProt P41595). Briefly: Inhibition of 5HT2B receptor at 10 uM.
Experiment [33] has as its target 5-hydroxytryptamine receptor 6 (Homo sapiens) (UniProt P50406). Put plainly: Inhibition of 5HT6 receptor at 10 uM.
The target of experiment [34] is Histamine H1 receptor (Homo sapiens) (UniProt P35367). Briefly: Inhibition of histamine H1 receptor at 10 uM.
The target in experiment [35] is Beta-2 adrenergic receptor (Homo sapiens) (UniProt P07550). Briefly: Inhibition of beta2 adrenoceptor receptor at 10 uM.
In experiment [36] the target is T4, Sodium-dependent noradrenaline transporter (Homo sapiens, UniProt P23975). Put plainly: Binding affinity to NET.
The target of experiment [37] is Histamine H4 receptor (Homo sapiens) (UniProt Q9H3N8). Put plainly: Inhibition of histamine H4 receptor at 10 uM.
Experiment [38] can be described thus: Inhibition of phencyclidine binding site of NMDA receptor at 10 uM.
Experiment [39] has as its target Kappa-type opioid receptor (Homo sapiens) (UniProt P41145). Put plainly: Inhibition of Kappa opioid receptor at 10 uM.
The target in experiment [40] is Beta-1 adrenergic receptor (Homo sapiens) (UniProt P08588). Briefly: Inhibition of beta-1 adrenoceptor receptor at 10 uM.
The target of experiment [41] is Cannabinoid receptor 2 (Homo sapiens) (UniProt P34972). Briefly: Inhibition of CB2 receptor at 10 uM.
Experiment [42] concerns the target T4, Sodium-dependent noradrenaline transporter. Put plainly: Inhibition of NET at 10 uM.
The target of experiment [43] is 5-hydroxytryptamine receptor 1A (Homo sapiens) (UniProt P08908). Briefly: Inhibition of 5HT1A receptor at 10 uM.

Chain of Sigma non-opioid intracellular receptor 1 (Q99720 whole entry): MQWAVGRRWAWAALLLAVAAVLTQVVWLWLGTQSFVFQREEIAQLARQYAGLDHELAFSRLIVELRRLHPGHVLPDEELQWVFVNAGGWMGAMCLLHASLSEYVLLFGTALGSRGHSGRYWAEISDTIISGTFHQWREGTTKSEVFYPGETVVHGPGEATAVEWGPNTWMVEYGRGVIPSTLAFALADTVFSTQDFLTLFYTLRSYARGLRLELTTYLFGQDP
T2 sequence (Q01959 whole entry): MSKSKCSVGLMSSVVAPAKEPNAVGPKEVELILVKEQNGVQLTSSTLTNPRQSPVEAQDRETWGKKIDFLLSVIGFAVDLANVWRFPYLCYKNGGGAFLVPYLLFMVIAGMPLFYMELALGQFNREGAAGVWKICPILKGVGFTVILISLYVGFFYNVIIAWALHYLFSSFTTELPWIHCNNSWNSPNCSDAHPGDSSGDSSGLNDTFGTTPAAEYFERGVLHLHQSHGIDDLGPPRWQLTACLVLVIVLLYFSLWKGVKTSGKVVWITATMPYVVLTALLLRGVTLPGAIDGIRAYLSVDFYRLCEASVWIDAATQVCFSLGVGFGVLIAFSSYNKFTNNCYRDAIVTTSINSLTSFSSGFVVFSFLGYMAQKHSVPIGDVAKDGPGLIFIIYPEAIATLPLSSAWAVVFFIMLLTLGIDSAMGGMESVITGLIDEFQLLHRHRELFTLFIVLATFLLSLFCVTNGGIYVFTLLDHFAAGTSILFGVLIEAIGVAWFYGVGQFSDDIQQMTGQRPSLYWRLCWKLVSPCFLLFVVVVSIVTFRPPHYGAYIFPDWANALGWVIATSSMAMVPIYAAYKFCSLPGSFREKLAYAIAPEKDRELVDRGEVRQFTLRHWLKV
Chain of 5-hydroxytryptamine receptor 1D (Homo sapiens) (P28221 whole entry): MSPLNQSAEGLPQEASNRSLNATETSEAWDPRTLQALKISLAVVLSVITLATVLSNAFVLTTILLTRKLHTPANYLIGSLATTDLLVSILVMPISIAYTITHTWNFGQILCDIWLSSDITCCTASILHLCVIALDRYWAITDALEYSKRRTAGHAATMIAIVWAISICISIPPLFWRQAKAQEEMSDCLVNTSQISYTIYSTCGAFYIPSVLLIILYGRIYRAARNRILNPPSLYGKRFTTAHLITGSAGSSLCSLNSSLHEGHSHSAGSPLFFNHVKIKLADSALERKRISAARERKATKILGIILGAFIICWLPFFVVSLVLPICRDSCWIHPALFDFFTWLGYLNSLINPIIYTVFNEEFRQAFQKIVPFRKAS
Chain of Beta-2 adrenergic receptor (Homo sapiens) (P07550 whole entry, looked up): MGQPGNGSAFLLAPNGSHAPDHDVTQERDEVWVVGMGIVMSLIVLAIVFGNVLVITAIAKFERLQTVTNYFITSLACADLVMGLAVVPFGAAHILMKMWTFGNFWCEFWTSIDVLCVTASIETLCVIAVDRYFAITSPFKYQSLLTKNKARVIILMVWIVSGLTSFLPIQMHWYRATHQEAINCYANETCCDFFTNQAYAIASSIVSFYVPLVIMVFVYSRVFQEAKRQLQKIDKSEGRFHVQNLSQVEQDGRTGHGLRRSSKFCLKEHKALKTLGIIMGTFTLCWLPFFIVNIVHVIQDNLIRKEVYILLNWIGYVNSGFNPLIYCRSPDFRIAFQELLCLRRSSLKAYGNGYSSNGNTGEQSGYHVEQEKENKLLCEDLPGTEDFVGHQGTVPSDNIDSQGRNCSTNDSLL
Chain of 5-hydroxytryptamine receptor 5A (Homo sapiens) (P47898 whole entry): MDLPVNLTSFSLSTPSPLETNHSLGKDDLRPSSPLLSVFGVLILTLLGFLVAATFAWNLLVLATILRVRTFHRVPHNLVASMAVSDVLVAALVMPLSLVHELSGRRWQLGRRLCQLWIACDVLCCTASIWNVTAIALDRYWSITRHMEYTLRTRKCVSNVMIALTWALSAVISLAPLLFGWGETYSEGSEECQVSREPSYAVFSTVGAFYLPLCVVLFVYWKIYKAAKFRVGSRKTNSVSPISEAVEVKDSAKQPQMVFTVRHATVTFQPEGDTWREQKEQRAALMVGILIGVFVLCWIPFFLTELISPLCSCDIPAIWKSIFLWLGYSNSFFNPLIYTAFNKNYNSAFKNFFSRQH
Chain of D(1A) dopamine receptor (Homo sapiens) (P21728 whole entry): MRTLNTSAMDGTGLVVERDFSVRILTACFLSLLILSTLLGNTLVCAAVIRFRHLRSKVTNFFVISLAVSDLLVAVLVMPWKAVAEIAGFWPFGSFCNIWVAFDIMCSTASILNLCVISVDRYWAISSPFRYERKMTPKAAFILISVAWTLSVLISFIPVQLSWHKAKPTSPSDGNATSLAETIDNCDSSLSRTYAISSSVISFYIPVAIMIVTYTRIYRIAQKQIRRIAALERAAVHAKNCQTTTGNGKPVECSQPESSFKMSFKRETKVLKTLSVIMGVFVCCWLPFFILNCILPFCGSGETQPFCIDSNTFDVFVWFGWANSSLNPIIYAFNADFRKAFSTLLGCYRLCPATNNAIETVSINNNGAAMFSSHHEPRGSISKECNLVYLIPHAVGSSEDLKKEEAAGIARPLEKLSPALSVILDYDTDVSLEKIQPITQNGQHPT
Chain of 5-hydroxytryptamine receptor 2A (Homo sapiens) (P28223 whole entry): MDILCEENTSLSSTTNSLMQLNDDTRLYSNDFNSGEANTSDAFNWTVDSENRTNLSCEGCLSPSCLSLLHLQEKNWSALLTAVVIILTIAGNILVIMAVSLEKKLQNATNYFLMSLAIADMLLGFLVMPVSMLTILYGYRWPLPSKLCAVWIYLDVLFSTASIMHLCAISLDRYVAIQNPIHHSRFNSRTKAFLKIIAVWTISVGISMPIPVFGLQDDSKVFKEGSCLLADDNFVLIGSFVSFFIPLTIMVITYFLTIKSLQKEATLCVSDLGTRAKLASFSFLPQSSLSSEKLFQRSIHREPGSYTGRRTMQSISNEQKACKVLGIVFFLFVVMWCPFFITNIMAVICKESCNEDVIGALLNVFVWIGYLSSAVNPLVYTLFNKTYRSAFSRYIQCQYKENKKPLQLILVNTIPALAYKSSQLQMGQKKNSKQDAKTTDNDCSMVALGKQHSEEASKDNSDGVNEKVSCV
Chain of Alpha-2B adrenergic receptor (Homo sapiens) (P18089 whole entry): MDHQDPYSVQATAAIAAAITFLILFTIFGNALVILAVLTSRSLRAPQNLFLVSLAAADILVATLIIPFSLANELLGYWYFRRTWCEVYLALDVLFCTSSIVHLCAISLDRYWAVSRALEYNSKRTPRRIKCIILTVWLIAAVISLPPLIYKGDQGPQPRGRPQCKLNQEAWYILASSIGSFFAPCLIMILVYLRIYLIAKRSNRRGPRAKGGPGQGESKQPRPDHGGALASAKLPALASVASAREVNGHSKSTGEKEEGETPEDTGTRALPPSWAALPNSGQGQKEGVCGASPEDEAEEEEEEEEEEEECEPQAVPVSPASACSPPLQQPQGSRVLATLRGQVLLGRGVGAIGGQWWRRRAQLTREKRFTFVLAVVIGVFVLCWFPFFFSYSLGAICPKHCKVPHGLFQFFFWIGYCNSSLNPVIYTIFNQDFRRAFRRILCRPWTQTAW
Chain of Beta-1 adrenergic receptor (Homo sapiens) (P08588 whole entry, looked up): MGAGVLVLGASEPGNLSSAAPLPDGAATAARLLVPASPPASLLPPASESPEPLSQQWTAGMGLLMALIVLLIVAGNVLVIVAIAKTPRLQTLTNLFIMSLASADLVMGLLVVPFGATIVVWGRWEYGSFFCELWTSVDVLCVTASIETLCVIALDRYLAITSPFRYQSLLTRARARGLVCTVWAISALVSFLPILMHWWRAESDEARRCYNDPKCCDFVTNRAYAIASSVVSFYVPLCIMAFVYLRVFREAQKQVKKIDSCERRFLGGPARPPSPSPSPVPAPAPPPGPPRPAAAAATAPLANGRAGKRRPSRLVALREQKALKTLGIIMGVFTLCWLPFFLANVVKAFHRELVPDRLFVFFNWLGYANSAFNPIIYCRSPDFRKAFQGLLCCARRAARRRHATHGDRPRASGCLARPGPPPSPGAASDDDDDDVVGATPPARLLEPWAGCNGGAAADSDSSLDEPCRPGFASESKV
Chain of D(2) dopamine receptor (Homo sapiens) (P14416 whole entry): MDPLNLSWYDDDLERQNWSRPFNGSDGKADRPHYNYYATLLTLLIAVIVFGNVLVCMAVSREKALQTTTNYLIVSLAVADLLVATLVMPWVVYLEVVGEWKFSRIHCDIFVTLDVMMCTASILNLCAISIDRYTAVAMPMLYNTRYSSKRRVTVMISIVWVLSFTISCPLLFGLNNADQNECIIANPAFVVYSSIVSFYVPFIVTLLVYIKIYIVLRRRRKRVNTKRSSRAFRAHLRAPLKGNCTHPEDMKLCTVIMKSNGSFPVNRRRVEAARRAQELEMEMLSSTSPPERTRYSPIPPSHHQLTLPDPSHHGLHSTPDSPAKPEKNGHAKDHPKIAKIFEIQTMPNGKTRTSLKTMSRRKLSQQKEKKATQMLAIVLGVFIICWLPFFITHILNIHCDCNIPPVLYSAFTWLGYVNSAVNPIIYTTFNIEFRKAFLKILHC
Chain of Histamine H1 receptor (Homo sapiens) (P35367 whole entry): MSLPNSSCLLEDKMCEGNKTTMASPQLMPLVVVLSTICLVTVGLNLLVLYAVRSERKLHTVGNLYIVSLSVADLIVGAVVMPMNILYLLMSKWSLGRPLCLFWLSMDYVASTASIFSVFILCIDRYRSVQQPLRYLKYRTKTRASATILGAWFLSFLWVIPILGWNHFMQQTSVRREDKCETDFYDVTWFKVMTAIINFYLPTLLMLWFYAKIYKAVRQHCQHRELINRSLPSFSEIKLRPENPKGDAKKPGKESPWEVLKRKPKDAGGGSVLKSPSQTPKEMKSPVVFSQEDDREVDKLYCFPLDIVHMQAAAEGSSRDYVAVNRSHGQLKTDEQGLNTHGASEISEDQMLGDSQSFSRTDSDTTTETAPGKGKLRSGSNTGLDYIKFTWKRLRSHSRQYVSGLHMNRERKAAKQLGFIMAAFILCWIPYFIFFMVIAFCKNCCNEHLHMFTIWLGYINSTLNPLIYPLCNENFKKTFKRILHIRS

As to `OC12C3C4CC5C6C4C1C6C(C53)N2CCc1cccc(F)c1` (stereo not drawn), the Ki was 12 nM in experiment [1], more than 10000 nM in experiment [3], 48 nM in experiment [4] and more than 10000 nM in experiment [6]. Also, the inhibition in experiment [2], in [5] and in experiment [8] was less than 50% throughout. Besides, in [7], the Ratio stood at 0.25.
On to `Fc1cccc(CCNC23OC4C5C6CC(C7C6C4C72)C53)c1` (stereo not drawn), for which the inhibition in [9], in experiment [10], in experiment [11], in experiment [12], in [13] and in experiment [14] was less than 50% in each case. Besides, the inhibition in experiment [15], in experiment [16], in [17], in experiment [2], in experiment [18] and in experiment [20] was less than 50% each time. The inhibition in experiment [21], in experiment [22], in experiment [24], in experiment [25], in [26] and in experiment [27] was less than 50% each time. In addition, the inhibition in experiment [28], in [29], in experiment [30], in experiment [31], in [32] and in experiment [33] was less than 50% in each case. In addition, the inhibition in [34], in [35], in experiment [37], in experiment [38], in experiment [39] and in [40] was less than 50% in each case. In experiment [41], this compound yielded an inhibition of less than 50%. For the same compound, the inhibitory constant (Ki) in [1] is 149 nM; in experiment [3], 20 nM; in experiment [19], 20 nM; in experiment [4] it was 363 nM; in experiment [23], more than 10000 nM; in [6] it was 137 nM. The Ki in experiment [36] was more than 10000 nM. In addition, the Ratio in experiment [7] was 0.41.
`OC12C3C4CC5C6C4C1C6C(C53)N2Cc1cccc(F)c1` (stereo not drawn): the inhibition constant (Ki) was 153 nM in experiment [1], more than 10000 nM in experiment [3], 31 nM in [4] and more than 10000 nM in experiment [6]. Besides, the inhibition in experiment [2], in experiment [5] and in experiment [8] was less than 50% throughout. Further, the Ratio in [7] was found to be 4.94.
As to `Fc1cccc(CNC23OC4C5C6CC(C7C6C4C72)C53)c1` (stereo not drawn), the inhibition in [9], in experiment [10], in experiment [11], in experiment [12], in experiment [13] and in [14] was less than 50% each time. Besides, the inhibition in [15], in experiment [16], in experiment [17], in experiment [2], in experiment [18] and in experiment [20] was less than 50% throughout. Moreover, the inhibition in experiment [42], in [21], in [22], in experiment [24], in experiment [25] and in [26] was less than 50% in each case. In addition, the inhibition in [27], in [28], in [29], in experiment [30], in experiment [5] and in experiment [32] was less than 50% in each case. Also, the inhibition in experiment [33], in experiment [34], in [35], in experiment [37], in experiment [38] and in experiment [39] was less than 50% throughout. Also, the inhibition in experiment [40], in experiment [41], in experiment [43] and in [8] was less than 50% throughout. Also, the results for the inhibitory constant (Ki) in experiment [1], in experiment [4] and in [6] were 2280 nM, 1640 nM and more than 10000 nM, respectively. Besides, the Ratio in [7] turned out to be 1.39.
